Like-named read-outs stand apart in the source and are kept apart here.
Tested on: NCI-H716 cells
Test: GLP-1 secretion-promoting effect using NCI-H716 cells (GLP-1 in supernatant by ELISA)
Format: cell-based, Human
Conditions: for GLP-1 secretion compared to Control: Experiment 1-3, text on Table 1, mGN 2.5 mM, flavor component 0.25 mM; for activity at 125 µM: test sample alone at 0.125 mM; for activity at 25 µM: test sample alone at 0.025 mM; for activity at 2500 µM: test sample alone at 2.5 mM; for activity at 25000 µM: test sample alone at 25 mM
Procedure: GLP-1 secretion-promoting effect was evaluated by the following experiment using NCI-H716 cells (Human intestinal tract-derived cell line; purchased from ATCC).
NCI-H716 cells were cultured at 37° C. with 5% CO2 using RPMI1640 (supplemented with 10% Fetal Bovine Serum, manufactured by Sigma) as a cell culture medium for passage. After culturing, cells were suspended in DMEM medium (supplemented with 10% Fetal Bovine Serum; containing 4.5 mg/mL of glucose; manufactured by Shimadzu Diagnostics Corporation, Tokyo, Japan) and added to a Matrigel (120 μL/well; manufactured by Corning Incorporated, NY, USA)-coated 48-well plate at a cell density of 1.2×10^5 cells/well. After incubation for 2 days, the cells were washed twice with 20 mM HEPES-containing HBSS (Hank's Balanced Salt Solution) buffer. After removal of the washing buffer, 20 mM HEPES-HBSS (supplemented with 0.01% BSA) containing the above-described test samples was added and the cells were incubated for 2 hours. After incubation, the supernatant was collected into a microcentrifuge tube containing diprotin-A (DPP4 inhibitor, manufactured by Abcam plc., Cambridge, UK) and protease inhibitors (cOmplete™, EDTA-free Protease Inhibitor Cocktail, Roche, Basel, Switzerland; Catalogue No. 1187358001). After centrifugation, the supernatant was stored at −80° C. until it was used for the GLP-1 measurement. The amount of GLP-1 in the medium was measured by ELISA method using GLP-1 Active Form Assay Kit (manufactured by Immuno-Biological Laboratories Co, Ltd., Gunma, Japan). […] As a positive control for measuring cytotoxicity, the cells added with 0.1% Triton X-100/PBS (−) (Phosphate Buffered Saline) were used. The LDH activity in the cell culture supernatant of the positive control was set as 100% and the ratio to the positive control (LDH activity in the cell culture supernatant of sample/LDH activity in the positive control) was calculated as the cytotoxicity rate. Herein, it was judged that a sample had no cytotoxicity when the cytotoxicity rate was within ±2% compared to that of “control (cells cultured with 20 mM HEPES-HBSS without a test sample, instead of 20 mM HEPES-HBSS containing a test sample; shown as “No Addition” in Table 1)”.
The amount of GLP-1 secretion was determined as a relative value to the average value of the GLP-1 secretion amount obtained for a control (cells cultured with 20 mM HEPES-HBSS without a test sample instead of 20 mM HEPES-HBSS containing a test sample; shown as “No Addition” in Table 1). In Table 1, the GLP-1 secretion amounts when mGN and flavor components were used separately and the GLP-1 secretion amounts when mGN and flavor components were used in combination were shown. […] The synergistic effect of mGN and flavor components in promoting GLP-1 secretion was judged based on the following criteria.
Synergistic Effect: Theoretical Value<(is less than) Measured Value • Theoretical Value=([…])×100+(B/D−1)×100 • Measured Value=(C/D-1)×100
The theoretical value and the measure value were compared based on the above formula. When the measured value was higher than the theoretical value, it was judged that there was a synergistic effect, which was indicated as “O” in the table.
The presence or absence of the synergistic effect by the combination of mGN and thymol was judged based on the formula used in Experiment 1-3. When the measured value was higher than the theoretical value, it was judged that there was a synergistic effect and it was indicated as “O” in the table. Furthermore, a Tukey-Kramer test was performed. When there was a significant difference (Risk Rate p<0.05) between the GLP-1 secretion amount of the combination of mGN and thymol (C) and each of the GLP-1 secretion amount of Control (D), mGN alone (A), and thymol alone (B), it was indicated “⊚” in the below table.

[1] = Homo sapiens, NCI-H716, 2 h, Table 1, Experiment 1-3, test sample alone at 0.25 mM, Control (No Addition) = 100, 2 hours, read-out: GLP-1 secretion amount, Independent Use (relative value to Control)
[2] = Experiment 1-3, flavor component alone 0.25 mM
[3] = Table 1, Experiment 1-3, test sample alone at 0.25 mM, Control (No Addition) = 100, 2 hours
[4] = Homo sapiens, NCI-H716, 2 h, Table 4, Experiment 4, Control = 100, N=3, read-out: GLP-1 secretion amount, Independent Use (relative value to Control)
[5] = Homo sapiens, NCI-H716, 2 h, Table 4, Experiment 4, test sample alone at 0.25 mM, Control = 100, N=3, read-out: GLP-1 secretion amount, Independent Use (relative value to Control)
[6] = Homo sapiens, NCI-H716, 2 h, Table 3, Experiment 3, Control = 100, N=3, read-out: GLP-1 secretion amount, Independent Use (relative value to Control)
[7] = Homo sapiens, NCI-H716, 2 h, Table 2, Experiment 2, Control = 100, N=3, read-out: GLP-1 secretion amount, Independent Use (relative value to Control)
[8] = Homo sapiens, NCI-H716, 2 h, Table 6, Experiment 6, Control = 100, N=3, read-out: GLP-1 secretion amount, Independent Use (relative value to Control)

C=C1C2CCC(C2)C1(C)C (centres unmarked) [Camphene, camphene]
activity at 250 µM [1]: 135%

CC(C)=CCCC(C)=CC=O [Citral, citral, reference compound]
GLP-1 secretion compared to Control: approximately 2.4 times | activity at 250 µM [1]: 246%

CC(C)=CCCC(C)CC=O (centres unmarked) [Citronellal, citronellal, reference compound]
activity at 250 µM [1]: 113%

CNc1ccccc1C(=O)OC [Methyl N-methyl anthranilate, methyl N-methyl anthranilate]
GLP-1 secretion promoting effect when used alone (in words) [2]: no GLP-1 secretion promoting effect | GLP-1 secretion amount, Independent Use (relative value to Control) [3]: 73

COC(=O)c1ccccc1N [Methyl anthranilate, methyl anthranilate]
GLP-1 secretion promoting effect when used alone (in words) [2]: no GLP-1 secretion promoting effect | activity at 250 µM (Homo sapiens, NCI-H716, 2 h, read-out: GLP-1 secretion amount, Independent Use (relative value to Control)): 73%

C=C(C)[C@@H]1CCC2=CC(=O)C[C@@H](C)[C@]2(C)C1 [Nootkatone, nootkatone]
GLP-1 secretion when used alone (in words) (Experiment 4, alone, concentrations of Table 4): promoted in a nootkatone concentration-dependent manner | activity at 250 µM [1]: 457% | activity at 12.5 µM (Homo sapiens, NCI-H716, 2 h, Table 4, Experiment 4, test sample alone at 0.0125 mM, Control = 100, N=3, read-out: GLP-1 secretion amount, Independent Use (relative value to Control)): 70% | activity at 37.5 µM (Homo sapiens, NCI-H716, 2 h, Table 4, Experiment 4, test sample alone at 0.0375 mM, Control = 100, N=3, read-out: GLP-1 secretion amount, Independent Use (relative value to Control)): 111% | activity at 125 µM [4]: 350% | activity at 250 µM [5]: 464%

C=C1CCC2(C(C)C)CC12 (centres unmarked) [Sabinene, sabinene]
GLP-1 secretion promoting effect when used alone (in words) [2]: no GLP-1 secretion promoting effect | activity at 250 µM [1]: 101%

Cc1ccc(C(C)C)c(O)c1 [Thymol, thymol]
GLP-1 secretion promoting effect when used alone (in words) [2]: no GLP-1 secretion promoting effect | GLP-1 secretion-promoting effect when used alone (in words) (Experiment 2, alone at a concentration of 0.25 mM): no GLP-1 secretion-promoting effect was observed | GLP-1 secretion promoting effect when used alone (in words) (Experiment 3, alone, 0.0067 mM to 0.125 mM): no GLP-1 secretion promoting effect | activity at 250 µM [1]: 82% | activity at 6.7 µM (Homo sapiens, NCI-H716, 2 h, Table 3, Experiment 3, test sample alone at 0.0067 mM, Control = 100, N=3, read-out: GLP-1 secretion amount, Independent Use (relative value to Control)): 34% | activity at 25 µM [6]: 61% | activity at 125 µM [6]: 65%

C=C(C)[C@@H]1CCC2=CCC[C@@H](C)[C@]2(C)C1 [Valencene, valencene]
GLP-1 secretion amount, Independent Use (relative value to Control) [3]: 121

CC1O[C@@H](OC2[C@H](Oc3cc(O)c4c(c3)OC(c3ccc(O)cc3)CC4=O)OC(CO)[C@@H](O)[C@H]2O[C@H]2OC(CO)[C@@H](O)[C@@H](O)C2O)C(O)[C@@H](O)[C@H]1O (stereo partly drawn) [mGN, 3″-α-monoglucosyl naringin]
GLP-1 secretion compared to Control: approximately 1.6 times | GLP-1 secretion when used alone (in words) (Experiment 2, alone, 0.025 mM to 150 mM): promoted to some extent in a mGN concentration-dependent manner | activity at 2500 µM (Homo sapiens, NCI-H716, 2 h, Table 1, Experiment 1-3, Control (No Addition) = 100, 2 hours, read-out: GLP-1 secretion amount, Independent Use (relative value to Control)): 164% | activity at 25 µM [7]: 45% | activity at 250 µM (Homo sapiens, NCI-H716, 2 h, Table 2, Experiment 2, test sample alone at 0.25 mM, Control = 100, N=3, read-out: GLP-1 secretion amount, Independent Use (relative value to Control)): 63% | activity at 2500 µM [7]: 121% | activity at 25000 µM [7]: 427% | activity at 25000 µM [6]: 521% | activity at 25 µM [4]: 39% | activity at 250 µM [5]: 63% | activity at 2500 µM [4]: 85% | activity at 12500 µM (Homo sapiens, NCI-H716, 2 h, Table 4, Experiment 4, test sample alone at 12.5 mM, Control = 100, N=3, read-out: GLP-1 secretion amount, Independent Use (relative value to Control)): 502% | activity at 25 µM (Homo sapiens, NCI-H716, 2 h, Table 5, Experiment 5, Control = 100, N=3, read-out: GLP-1 secretion amount, Independent Use (relative value to Control)): 39% | activity at 25 µM [8]: 53% | activity at 25000 µM [8]: 457%

CC1=CCC2CC1C2(C)C (stereo not drawn) [α-Pinene, α-pinene]
activity at 250 µM [1]: 136%

C=C1CC/C=C(\C)CC[C@@H]2[C@@H]1CC2(C)C [β-Caryophyllene, β-caryophyllene]
GLP-1 secretion amount, Independent Use (relative value to Control) [3]: 111

CC(=O)/C=C/C1=C(C)CCCC1(C)C [β-Ionone, β-ionone]
GLP-1 secretion amount, Independent Use (relative value to Control) [3]: 157

C=C1CCC2CC1C2(C)C (stereo not drawn) [β-Pinene, β-pinene]
GLP-1 secretion promoting effect when used alone (in words) [2]: no GLP-1 secretion promoting effect | activity at 250 µM [1]: 100%
